Experimental data reported in patent US20130018062A1, “Pain therapy with metabolism blocked antifolates” (priority 2011, published 2013).

Experiments:
[1] = system: Human HCT-8 Colon Xenograft; assay: Antitumor activity in nude mice bearing human HCT-8 colon xenograft (Example-4); assay type: in vivo; conditions: i.v. push daily × 5 at maximum tolerated dose (M-Trex 4.0, MTX 1.0 mg/kg/day)
Text: There are three general accepted methods for the evaluation of Pain in patients suffering from a number of diseases. They are Visual Analog Scale (VAS); Numeric rating Scale (NRS) and Verbal Categorical Rating Scale […]. Of these three assessment methods VAS is considered to be most reliable in a majority of cases to evaluate and quantify the magnitude of the perception of Pain. Clinical trials conducted by Castaneda and Nair used VAS to assess pain intensity in RA patients receiving 10-DAAM in one trial [G. Alarcon, O. Castaneda, W. J. Koopman, C. L. Krumdieck, and M. G. Nair. U.S. Pat. No. 5,030,634 (1991)] and M-Trex (CH-1504) in another trial conducted separately. Almost all cases of cancer Pain is due to tissue inflammation, tissue compression and tissue damage secondary to rapid proliferation of cells. Therefore any therapeutic intervention that shrinks proliferating tissues can bring about significant reduction in Pain. Shown below is the efficacy of M-Trex in shrinking human colon cancer transplanted and growing in nude mice.

[2] = Toxicity (maximum tolerated dose, weight loss) in nude mice bearing HCT-8 xenograft; assay type: in vivo; conditions: i.v. push daily × 5 in nude mice
CCRF-CEM (Leukemia) = assay: Growth inhibition of human tumor cells in culture (NCI); assay type: cell-based; conditions: logarithmic value
Text: (§1) The preceding data collected at the National Cancer Institute summarize the ability of M-Trex to inhibit 50% of the growth of selected tumor cells in culture. The values are expressed as Log10 GI50 values all of which are lower than 10^−8M. In the same table a comparison is made of the respective values of TGI (Total Growth Inhibition) for M-Trex and MTX. […] In addition, the Log10 GI50 values of M-Trex was lower than −8.00 for the following cell lines: NSCLC, A549/ATCC and NCI H23; Colon Cancer, HCT 116, HCT 29 and SW 620; CNS Cancer, SF 268; Melanoma M 14 and UACC 62; Ovarian Cancer, OVCAR-8; Renal Cancer, ACHN, CAKI-1, SN 12C, and UO 31; Prostate Cancer, PC 3 and Breast cancer, MDA-MB-435 and MDA-N. The MG_MID value of MTX for all 49 human tumor cell lines evaluated at NCI-DTP program was −7.05. […] The tumors and sarcomas are solid while leukemia and lymphoma are liquid tumors.

K562 (Leukemia) = assay: as above; assay type: cell-based; conditions: logarithmic value
Text: as §1

MOLT-4 (Leukemia) = assay: as above; assay type: cell-based; conditions: logarithmic value
Text: as §1

RPMI 8226 (Leukemia) = assay: as above; assay type: cell-based; conditions: logarithmic value
Text: as §1

SF 539 (CNS Cancer) = assay: as above; assay type: cell-based; conditions: logarithmic value
Text: as §1

SR (Leukemia) = assay: as above; assay type: cell-based; conditions: logarithmic value
Text: as §1

Allergic Rabbits = conditions: allergen induced; cited from earlier work
human tumor cell lines = conditions: all 49 human tumor cell lines evaluated at NCI-DTP program; cited from earlier work
[3] = system: patients with Rheumatoid Arthritis; conditions: compared with methotrexate; cited from earlier work

SMILES | MTGI, Maximum Tumor Growth Inhibition (% of control) ([1]; nude mice, HCT-8 xenograft) [%] | Tumor doubling time, treated/control (%) ([1]; nude mice, HCT-8 xenograft) | TD, Tumor Doubling Time ([1]; control 2.6 ± 0.8 days) [days] | Maximum Tolerated dose [2] | TGI (Total Growth Inhibition) (CCRF-CEM (Leukemia)) | TGI (Total Growth Inhibition) (K562 (Leukemia)) | TGI (Total Growth Inhibition) (MOLT-4 (Leukemia)) | TGI (Total Growth Inhibition) (RPMI 8226 (Leukemia)) | TGI (Total Growth Inhibition) (SF 539 (CNS Cancer)) | TGI (Total Growth Inhibition) (SR (Leukemia)) | Asthmatic Response Early (Allergic Rabbits) | Asthmatic Response Late (Allergic Rabbits) | BHR (Bronchial Hyper-Responsiveness) (Allergic Rabbits) | MG_MID value (human tumor cell lines) | Pain reduction (in words) [3]
CN(Cc1cnc2nc(N)nc(N)c2n1)c1ccc(C(=O)N[C@@H](CCC(=O)O)C(=O)O)cc1 [MTX, methotrexate, reference compound] | 30.0 ± 9.0 | 176.92 | 4.6 ± 0.6 | MTX (1.0 mg/kg/day)^33 | −3.77 | −3.30 | −3.55 | −3.66 | −3.66 | −3.50 | 29 | 37 | 32 | −7.05 | –
Cn1c(=O)c2[nH]cnc2n(C)c1=O [Theophylline] | – | – | – | – | – | – | – | – | – | – | 45 | 49 | 39 | – | –
Nc1nc(N)c2nc(CCc3ccc(C(=O)N[C@@H](CCC(=O)O)C(=O)O)cc3)cnc2n1 [10-DAAM, 10-Deazaaminopterin] | – | – | – | – | – | – | – | – | – | – | – | – | – | – | very effective in reducing Pain
